US6838580B2, “Opioid derivative” (Teikoku Seiyaku Co., Ltd., priority 2002, dated 2005)
Marks after values point to notes of the source that are not given here.

Tests used:
μ-opioid receptor = μ-opioid receptor (Cavia porcellus, UniProt A0ACM8Q262); test: Guinea pig ileum (GPI) assay, inhibition of electrically stimulated constriction; format: cell-based; conditions: agonist activity, read-out: GPI (IC50 ± S.E.)
Description: An assay test for agonist and antagonist activities of opioid compounds was performed using guinea pig ileum (GPI) and mouse seminiferous tract (MVD). That is, male guinea pigs having the weight of around 300 g were killed by exsanguination, an ileum section having a length of around 10 cm was isolated from an ileum close to an ileum-caecum region was held at 36° C. The ileum section was placed in a Magnus tube treated with an oxygen mixture (95% O2/5% CO2) and filled with Krebs solution in the state where the rest tension of 1 g was applied with an isotonic transducer and, then, was performed. Then, the electrical stimulation was applied at 30V for 0.5 ms. via electrode previously installed in the Magnus tube to constrict guinea pig ileum longitudinal muscle and, after constriction was stabilized, a peptidase inhibitor was added. Then, the present peptide derivative to be tested was added, the constriction of guinea pig ileum longitudinal muscle was taken by GrassFTO 0.3 transducer and monitored by an amplifier and a recorder connected to the transducer. The opioid activity was determined by constriction inhibition after addition of the peptide derivative to be tested and constriction inhibition cancellation by addition of naloxone, a selective opioid antagonist. […]

δ-opioid receptor = target: T1, δ-opioid receptor (Rattus norvegicus, UniProt P33533); test: Competitive receptor binding assay, synaptic membrane fraction, [3H]DPDPE; conditions: rat brain synaptic membrane, read-out: Affinity of receptor (Ki, nM) δ
T1 construct: synaptic membrane fraction obtained from the rat brain tissue; from tissue; host or cells: Sprague-Dawley rat brain without cerebellum, synaptic membrane (P2) fraction
T1 sequence (P33533 whole entry): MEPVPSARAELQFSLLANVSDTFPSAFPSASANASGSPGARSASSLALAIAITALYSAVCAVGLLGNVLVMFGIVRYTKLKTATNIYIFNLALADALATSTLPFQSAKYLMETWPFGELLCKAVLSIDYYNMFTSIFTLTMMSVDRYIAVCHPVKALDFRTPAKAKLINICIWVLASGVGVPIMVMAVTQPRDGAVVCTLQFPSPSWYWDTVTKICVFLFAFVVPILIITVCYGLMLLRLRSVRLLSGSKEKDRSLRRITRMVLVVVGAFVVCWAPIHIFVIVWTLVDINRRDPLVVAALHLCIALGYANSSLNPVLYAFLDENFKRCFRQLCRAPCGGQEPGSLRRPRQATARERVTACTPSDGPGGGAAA
Description: Regarding the opioid peptide derivatives synthesized in Examples and Reference Examples, the μ- and δ-opioid receptor affinities were obtained by a competitive receptor assay using the synaptic membrane fraction obtained from the rat brain tissue according to the known methods. That is, Sprague-Dawley rats having an average weight of 150-180 g were killed by decapitation, the brain tissue from which cerebellum had been removed was homogenized in 0.32M sucrose and 1 mM HEPES (pH 7.5) containing 50 μg/ml soybean trypsin inhibitor, fractionated and centrifuged to obtain the synaptic membrane fraction (P2 fraction), which was pre-incubated in 50 mM HEPES (pH 7.5) containing 100 mM NaCl, 0.1 mM GDP and soybean trypsin inhibitor to remove endogenous ligands from the P2 fraction.
A competitive receptor binding assay (Radiolabeled receptor assay: RRA) based on an exchange reaction between a radioactive ligand for the synaptic membrane fraction and a peptide derivative to be tested was performed by using tritium-labeled [^3H]DAGO which is a μ-opioid receptor agonist and tritium-labeled [^3H]DPDPE which has the high δ-opioid receptor selectivity, and incubating an aliquot of the synaptic membrane with the peptide derivative to be tested for a period of time. Upon this, an exchange reaction between a ligand was performed under constant conditions, the radiation remaining in the synaptic membrane fraction was measured, and an amount of the ligand adsorbed onto the synaptic membrane fraction is calculated. By assuming that binding with a receptor occurs in competition between a radioactive ligand and an end ligand, the concentration (IC50) at which the maximum specific binding of the radioactive ligand is 50% inhibited was obtained, from which the affinity constant (Ki) was calculated by a method of Cheng et al. (Biochem. Pharmcol., 22, 3099(1973)).

SD Male rats = test: Analgesic effect, Randoll-Seritto hind limb pressure method, intracerebroventricular administration; format: in vivo; conditions: rat, i.c.v.
Excerpt: SD Male rats, weighing 110 to 130 g, were used. One group consisted of five rats. The analgesic effects were examined by a Randoll-Seritto method. […] The threshold was expressed in mm Hg. During the measurement, the upper limit of the pressure applied to a hind limb was 100 mm Hg in order to avoid damage of the tissues.
1) When performing intracerebroventricular administration (i.c.v.), a rat was fixed to a brain stereotactic fixing apparatus under slight ether anesthesia, the skin at a head was dissected, and an administration cannula was inserted into a place at a transverse of […] from a bregma position and a depth of 3.5 to 4.0 mm. The administration volume was 10 μl/animal. Observation of the analgesic action was performed before administration, and at 30 minutes, and 1, 2, 3, 4 and 5 hours after administration. Doses of both compounds were 0.1, 1 and 10 μg/animal. Separately, a group to which 5 mg/kg of naltrexone hydrochloride was administered subcutaneously immediately after compound of Ex.1 10 μg/animal i.c.v and a group to which 5 mg/kg of naltrexone hydrochloride was administered subcutaneously immediately after compound of Ex.4 10 μg/animal i.c.v. was made. In addition, as morphine hydrochloride at a dose of 3 μg/animal i.c.v. group was used as a positive control group and a physiological saline 10 μl/animal i.c.v. group as a control group was made, respectively.
In order to perform a significant difference test between respective administration groups and control groups, and between values at respective times before administration and after administration, a Dunnet multiple comparative test method was used. In the statistical processing for performing a significant difference test between morphine hydrochloride administration groups and control groups, Student t-test was used. For performing a significant difference test between values at respective times before administration and after administration in morphine hydrochloride administration groups, a Dunnet multiple comparative test method was used. A significant level was at 5 or lower % risk rate (two-tailed test).

[1] = 0.1 μg/animal, before administration
[2] = 1 μg/animal, before administration
[3] = 10 μg/animal + Naltrexon 5 mg/kg s.c., 0.5 hr
[4] = 10 μg/animal + Naltrexon 5 mg/kg s.c., 1 hr
[5] = 10 μg/animal + Naltrexon 5 mg/kg s.c., 2 hr
[6] = 10 μg/animal + Naltrexon 5 mg/kg s.c., 3 hr
[7] = 10 μg/animal + Naltrexon 5 mg/kg s.c., 4 hr
[8] = 10 μg/animal + Naltrexon 5 mg/kg s.c., 5 hr
[9] = 10 μg/animal + Naltrexon 5 mg/kg s.c., before administration
[10] = 10 μg/animal followed by naltrexone 5 mg/kg s.c.
[11] = 10 μg/animal, before administration

Sequence of μ-opioid receptor (A0ACM8Q262 1-400): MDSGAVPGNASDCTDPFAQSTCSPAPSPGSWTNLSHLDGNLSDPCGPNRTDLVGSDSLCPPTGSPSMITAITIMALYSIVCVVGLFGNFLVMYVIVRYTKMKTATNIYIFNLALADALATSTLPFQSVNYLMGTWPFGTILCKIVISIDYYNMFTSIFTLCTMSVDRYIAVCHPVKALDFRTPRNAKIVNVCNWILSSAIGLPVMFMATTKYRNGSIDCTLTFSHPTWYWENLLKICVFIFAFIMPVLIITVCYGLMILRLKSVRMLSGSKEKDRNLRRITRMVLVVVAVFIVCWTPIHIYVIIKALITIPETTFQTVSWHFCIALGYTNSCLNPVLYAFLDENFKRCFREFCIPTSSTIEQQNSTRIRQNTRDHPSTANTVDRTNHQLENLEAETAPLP

Row | SMILES | Ki (δ-opioid receptor) | Threshold (mmHg) (SD Male rats; 0.1 μg/animal, 0.5 hr) | Threshold (mmHg) (SD Male rats; 0.1 μg/animal, 1 hr) | Threshold (mmHg) (SD Male rats; 0.1 μg/animal, 2 hr) | Threshold (mmHg) (SD Male rats; 0.1 μg/animal, 3 hr) | Threshold (mmHg) (SD Male rats; 0.1 μg/animal, 4 hr) | Threshold (mmHg) (SD Male rats; 0.1 μg/animal, 5 hr) | Threshold (mmHg) (SD Male rats; [1]) | Threshold (mmHg) (SD Male rats; 1 μg/animal, 0.5 hr) | Threshold (mmHg) (SD Male rats; 1 μg/animal, 1 hr) | Threshold (mmHg) (SD Male rats; 1 μg/animal, 2 hr) | Threshold (mmHg) (SD Male rats; 1 μg/animal, 3 hr) | Threshold (mmHg) (SD Male rats; 1 μg/animal, 4 hr) | Threshold (mmHg) (SD Male rats; 1 μg/animal, 5 hr) | Threshold (mmHg) (SD Male rats; [2]) | Change in escape reaction threshold / analgesic effect, in words (SD Male rats; 10 μg/animal) | Threshold (mmHg) (SD Male rats; [3]) | Threshold (mmHg) (SD Male rats; [4]) | Threshold (mmHg) (SD Male rats; [5]) | Threshold (mmHg) (SD Male rats; [6]) | further results
1 | Cc1cc(O)cc(C)c1C[C@H](N)C(=O)NCCCCNC(=O)[C@@H](N)Cc1c(C)cc(O)cc1C.Cl.Cl [Ex.1, 1,4-Bis-(Dmt-amino)butane.2HCl] | 53.4 ± 14.8 nM | 47 ± 1 mmHg | 50 ± 2 mmHg | 50 ± 1 mmHg | 48 ± 2 mmHg | 48 ± 1 mmHg | 49 ± 1 mmHg | 47 ± 1 mmHg | 51 ± 3 mmHg | 54 ± 3 mmHg | 49 ± 1 mmHg | 49 ± 2 mmHg | 48 ± 2 mmHg | 47 ± 1 mmHg | 47 ± 2 mmHg | significant increase in the threshold was seen in the 10 μg/administration group 30 minutes and 1 hour after administration | 49 ± 1 mmHg | 53 ± 3 mmHg | 54 ± 2 mmHg | 52 ± 2 mmHg | IC50 (μ-opioid receptor): 5.33 ± 0.65 nM; Threshold (mmHg) (SD Male rats; [7]): 49 ± 1 mmHg; Threshold (mmHg) (SD Male rats; [8]): 50 ± 1 mmHg; Threshold (mmHg) (SD Male rats; [9]): 47 ± 2 mmHg; Change in escape reaction threshold / analgesic effect, in words (SD Male rats; [10]): dissipated by naltrexone 5 mg/kg subcutaneous administration; Threshold (mmHg) (SD Male rats; 10 μg/animal, 0.5 hr): 61 ± 8*^,$ mmHg; Threshold (mmHg) (SD Male rats; 10 μg/animal, 1 hr): 61 ± 5**^,$ mmHg; Threshold (mmHg) (SD Male rats; 10 μg/animal, 2 hr): 54 ± 4 mmHg; Threshold (mmHg) (SD Male rats; 10 μg/animal, 3 hr): 51 ± 3 mmHg; Threshold (mmHg) (SD Male rats; 10 μg/animal, 4 hr): 52 ± 2 mmHg; Threshold (mmHg) (SD Male rats; 10 μg/animal, 5 hr): 52 ± 1 mmHg; Threshold (mmHg) (SD Male rats; [11]): 48 ± 2 mmHg
2 | Cc1cc(O)cc(C)c1C[C@H](N)C(=O)NCCCCCCNC(=O)[C@@H](N)Cc1c(C)cc(O)cc1C [Ex.4, 1,6-Bis(Dmt-amino)hexane.2HCl] | 46.1 ± 8.8 nM | 47 ± 2 mmHg | 47 ± 1 mmHg | 50 ± 2 mmHg | 49 ± 2 mmHg | 49 ± 2 mmHg | 47 ± 1 mmHg | 45 ± 2 mmHg | 51 ± 2 mmHg | 51 ± 2 mmHg | 51 ± 3 mmHg | 50 ± 2 mmHg | 53 ± 2*^,$ mmHg | 52 ± 1*^,$ mmHg | 46 ± 1 mmHg | significant change in the threshold was not seen at any time after administration | 55 ± 2*^,$ mmHg | 52 ± 2*^,$ mmHg | 51 ± 2 mmHg | 51 ± 1 mmHg | Change in escape reaction threshold / analgesic effect, in words (SD Male rats; 1 μg/animal): significant increase in the threshold was seen 4 hours and 5 hours after administration; Threshold (mmHg) (SD Male rats; [7]): 52 ± 1*^,$ mmHg; Threshold (mmHg) (SD Male rats; [8]): 50 ± 1 mmHg; Threshold (mmHg) (SD Male rats; [9]): 46 ± 1 mmHg; Change in escape reaction threshold / analgesic effect, in words (SD Male rats; [10]): significant increase in the threshold was seen 30 minutes, 1 hour and 4 hours after administration; Threshold (mmHg) (SD Male rats; 10 μg/animal, 0.5 hr): 50 ± 2 mmHg; Threshold (mmHg) (SD Male rats; 10 μg/animal, 1 hr): 47 ± 0 mmHg; Threshold (mmHg) (SD Male rats; 10 μg/animal, 2 hr): 49 ± 2 mmHg; Threshold (mmHg) (SD Male rats; 10 μg/animal, 3 hr): 48 ± 2 mmHg; Threshold (mmHg) (SD Male rats; 10 μg/animal, 4 hr): 48 ± 2 mmHg; Threshold (mmHg) (SD Male rats; 10 μg/animal, 5 hr): 49 ± 1 mmHg; Threshold (mmHg) (SD Male rats; [11]): 46 ± 1 mmHg
